Source: paper PMC7703437, “In Vitro Hepatic Metabolism of Curcumin Diethyl Disuccinate by Liver S9 from Different Animal Species” (Frontiers in Pharmacology, 2020)
Read-outs that look alike come from different tables or passages of the source.

Key:
[1] = system: hepatic esterases of MLS9; assay: Identification of hepatic esterases by chemical inhibition, curcumin formation rate, MLS9; details: inhibitor 100 μM (EDTA 1 mM), preincubated 30 min at 37°C, MLS9 0.02 mg/ml, CDD 3 µM, 0.5 min
[2] = system: hepatic esterases of HLS9; assay: Identification of hepatic esterases by chemical inhibition, curcumin formation rate, HLS9; details: inhibitor 100 μM (EDTA 1 mM), preincubated 30 min at 37°C, HLS9 0.02 mg/ml, CDD 3 µM, 1 min
[3] = system: LS9 from all tested species (HLS9, MLS9, DLS9, RLS9); assay: In vitro metabolism profiling of CDD, statements for LS9 from all tested species; format: in vitro ADME, human, monkey, dog, rat
Method: (§1) The metabolism profiles of CDD were investigated against HLS9, MLS9, DLS9, and RLS9. A stock solution of CDD was prepared at 150 µM in 50% acetonitrile in water before use. The metabolism study was initiated by spiking 735 µl of preincubated LS9 with 15 µl of CDD stock solution, and the mixture was subsequently incubated at 37°C. The final concentrations of CDD and LS9 were 3 μM and 1 mg/ml, respectively. A 50-µl aliquot from the mixture was collected at 0.5, 1, 2, 3, 4, 5, 10, 15, 30, 45, 60, 90, and 120 min and immediately mixed with 100 µl of ice-cold acetonitrile containing 0.45 µM of internal standard DMC to terminate the metabolic reaction. […] The sample at the initial time point (0 min) was prepared as the other samples, except that heat-inactivated HLS9, MLS9, DLS9, and RLS9 (80°C for 20 min; 1 mg/ml protein) were used.
(§2) The UHPLC system consisted of an Agilent series 1290 quaternary pump with an online degasser, autosampler, column oven, and diode array detector. The mobile phase was composed of (A) 0.1% (v/v) formic acid in acetonitrile and (B) 0.1% (v/v) formic acid in water. Each solution was filtered through a nylon filter (pore size, 0.22 µm; MS® Membrane Filters; Membrane Solutions, United States) before use. The mobile phase flow rate was kept at 1.2 ml/min in a gradient mode using the following elution program: 0–3.0 min, initial A-B (40:60, v/v); 4.5–7.0 min, isocratic elution A-B [50:50, (v/v); 8.5–11.0 min, isocratic elution A-B (60:40, v/v); and 12.0–17.0 min, isocratic elution A-B (40:60, v/v)]. CDD, curcumin, and MSCUR in the supernatant were partitioned using a C8 column (4.6 mm × 50 mm, 2.7 µm; HALO, Advanced Materials Technology, United States) with reference to DMC. The detection wavelength was set at 400 nm (λ max(CDD) = 400 nm, λ max(curcumin) = 427 nm, λ max(MSCUR) = 418 nm, and λ max(DMC) = 421 nm). The column was maintained at 35°C throughout the run, and the supernatant injection volume was set at 20 µl.
The concentrations of CDD, curcumin, and MSCUR in the supernatant were determined from the standard plots, which were prepared by spiking individual working solutions of the compounds to heat-inactivated HLS9, MLS9, DLS9, and RLS9 ([Alcorn et al., 2007]; [Montoro-Garcia et al., 2009]; [Singh et al., 2010]). […]
The following equations were adopted to describe the changes in CDD and MSCUR content over time (t): A = A0e^−k1t (2) B= k1A0/k2−k1(e^−k1t−e^−k2t), (3) where A0 is the CDD concentration at time 0, k 1 is the degradation rate constant of CDD, and k 2 is the degradation rate constant of MSCUR. k 1 and k 2 were determined by using Eqs. […] The half-life (t 1/2) was calculated using Eq. 4: t1/2=0.693/k (4)

[4] = In vitro metabolism profiling of CDD in human liver S9 (1 mg/ml); format: in vitro ADME; details: pooled liver S9; human LS9 1 mg/ml; read-out: t 1/2 (MSCUR)
Method: as §1, §2
(§3) The concentrations of CDD, curcumin, and MSCUR in the supernatant were determined from the standard plots, which were prepared by spiking individual working solutions of the compounds to heat-inactivated HLS9, MLS9, DLS9, and RLS9 ([Alcorn et al., 2007]; [Montoro-Garcia et al., 2009]; [Singh et al., 2010]). These working standards were extracted with 100 µl of ice-cold acetonitrile containing 0.45 µM of DMC and then 120 μl of the supernatant was diluted with 40 μl of water prior to the UHPLC analysis. The peak area ratios of CDD, curcumin, and MSCUR to the internal standard were computed against linear concentration ranges of 0.025–4.5 µM CDD, 0.025–4.5 µM curcumin, and 0.0125–0.75 µM MSCUR, respectively, with the coefficient of determination (r^2) values greater than 0.99.
(§4) The percent content of CDD and the metabolites formed upon its incubation with LS9, namely, curcumin and MSCUR, was plotted against incubation time.
(§5) The following equations were adopted to describe the changes in CDD and MSCUR content over time (t): A = A0e^−k1t (2) B= k1A0/k2−k1(e^−k1t−e^−k2t), (3) where A0 is the CDD concentration at time 0, k 1 is the degradation rate constant of CDD, and k 2 is the degradation rate constant of MSCUR. k 1 and k 2 were determined by using Eqs. 2 and 3, respectively, with nonlinear regression analysis using the SOLVER function of Microsoft Excel for Office 365 MSO (16.0.12527.20986) ([Brown, 2001]). The half-life (t 1/2) was calculated using Eq. 4: t1/2=0.693/k (4)
(§6) The in vitro intrinsic clearance (CLint,in vitro) of CDD and MSCUR in LS9 was calculated using Eq. 5: CLint, in vitro= k × [V]incubation(ml)/[P]incubation(mg protein), (5) where [V]incubation is the incubation volume in ml, and [P]incubation is the amount of LS9. […]

human LS9 (HLS9; pooled) = assay: as above; format: in vitro ADME
Method: as §1, §2, §3, §4, §5, §6

dog LS9 (DLS9; beagle) = assay: In vitro metabolism profiling of CDD in dog liver S9 (1 mg/ml); format: in vitro ADME
Method: as §1, §2, §3, §4, §5, §6

[5] = as above; format: in vitro ADME, dog (beagle); details: beagle, liver S9; dog LS9 1 mg/ml; read-out: t 1/2 (MSCUR)
Method: as §1, §2, §3, §4, §5, §6

[6] = In vitro metabolism profiling of CDD in rat liver S9 (1 mg/ml); format: in vitro ADME, rat (Sprague–Dawley); details: Sprague-Dawley, liver S9; rat LS9 1 mg/ml; read-out: t 1/2 (MSCUR)
Method: as §1, §2, §3, §4, §5, §6

[7] = system: rat LS9 (RLS9; Sprague–Dawley); assay: as above; format: in vitro ADME
Method: as §1, §2, §3, §4, §5, §6

[8] = In vitro metabolism profiling of CDD in monkey liver S9 (1 mg/ml); format: in vitro ADME, monkey (cynomolgus); details: liver S9; monkey LS9 1 mg/ml; read-out: t 1/2 (MSCUR)
Method: as §1, §2, §3, §4, §5, §6

[9] = system: monkey LS9 (MLS9; cynomolgus); assay: as above; format: in vitro ADME
Method: as §1, §2, §3, §4, §5, §6

[10] = enzymatic hydrolysis, cited from earlier work

Compound: O=C([O-])c1cc[c]([Hg][OH])cc1.[Na+] [PCMB, 4-(hydroxymercurio) benzoic acid sodium salt]
- inhibition of CDD hydrolysis in MLS9 (relative curcumin formation rate) [1]: no enzyme inhibitory effects
- inhibition of CDD hydrolysis in HLS9 (relative curcumin formation rate) [2]: inhibited

Compound: C[C@@H]1CC[C@@]2(OC1)O[C@H]1[C@@H](O)[C@H]3[C@@H]4CC[C@H]5C[C@@H](O[C@@H]6O[C@H](CO)[C@H](O[C@@H]7O[C@H](CO)[C@@H](O)[C@H](O[C@@H]8OC[C@@H](O)[C@H](O)[C@H]8O)[C@H]7O[C@@H]7O[C@H](CO)[C@H](O)[C@H](O[C@@H]8O[C@H](CO)[C@@H](O)[C@H](O)[C@H]8O)[C@H]7O)[C@H](O)[C@H]6O)[C@H](O)C[C@]5(C)[C@H]4CC[C@]3(C)[C@H]1[C@@H]2C [digitonin]
- inhibition of CDD hydrolysis in HLS9 (relative curcumin formation rate) [2]: inhibited

Compound: curcumin
- curcumin (M1) produced ([3]; following 15 min of incubation of CDD 3 µM in each LS9): ~70%

Compound: O=[N+]([O-])c1ccc(OP(=O)(O)Oc2ccc([N+](=O)[O-])cc2)cc1 [BNPP, Bis(4-nitrophenyl) phosphate]
- inhibition of CDD hydrolysis in MLS9 (relative curcumin formation rate) [1]: inhibited
- inhibition of CDD hydrolysis in HLS9 (relative curcumin formation rate) [2]: inhibited

Compound: O=C(O)CN(CCN(CC(=O)O)CC(=O)O)CC(=O)O [EDTA, ethylenediaminetetraacetic acid]
- inhibition of CDD hydrolysis in MLS9 (relative curcumin formation rate) [1]: no enzyme inhibitory effects

Compound: O=S(=O)(F)Cc1ccccc1 [PMSF, phenylmethylsulfonyl fluoride]
- inhibition of CDD hydrolysis in HLS9 (relative curcumin formation rate) [2]: to a lesser extent

Compound: C=CC[N+](C)(C)c1ccc(CCC(=O)CCc2ccc([N+](C)(C)CC=C)cc2)cc1.[Br-].[Br-] [1,5-bis(4-allyldimethylammoniumphenyl) pentan-3-one dibromide]
- inhibition of CDD hydrolysis in MLS9 (relative curcumin formation rate) [1]: no enzyme inhibitory effects

Compound: O=C(O)c1cc(SSc2ccc([N+](=O)[O-])c(C(=O)O)c2)ccc1[N+](=O)[O-] [DTNB, 5,5′-dithiobis (2-nitrobenzoic acid)]
- inhibition of CDD hydrolysis in MLS9 (relative curcumin formation rate) [1]: no enzyme inhibitory effects
- inhibition of CDD hydrolysis in HLS9 (relative curcumin formation rate) [2]: to a lesser extent

Compound: CN(C)C(=O)C(CCN1CCC(O)(c2ccc(Cl)cc2)CC1)(c1ccccc1)c1ccccc1 [loperamide]
- inhibition of CDD hydrolysis in HLS9 (relative curcumin formation rate) [2]: inhibited

Compound: CC(C)NP(=O)(NC(C)C)OP(=O)(NC(C)C)NC(C)C [iso-OMPA, tetra(monoisopropyl) pyrophosphortetramide]
- inhibition of CDD hydrolysis in HLS9 (relative curcumin formation rate) [2]: to a lesser extent

Compound: CCOC(=O)CCC(=O)Oc1ccc(/C=C/C(=O)/C=C(O)/C=C/c2ccc(O)c(OC)c2)cc1OC [MSCUR, monoethylsuccinyl curcumin]
- maximum amount of M2 or MSCUR ([3]; at 0.5 min of incubation of CDD 3 µM in LS9): approximately 10%
- half-life [4]: 3.456 ± 0.00252 s
- CLint, in vitro(MSCUR) (human LS9 (HLS9; pooled); human LS9): 12.07 ± 0.86 ml min^−1 mg protein^−1
- k 2 (MSCUR) (human LS9 (HLS9; pooled); human LS9 1 mg/ml, CDD 3 µM, 37°C): 12.07 ± 0.86 min⁻¹
- CLint, in vivo(MSCUR) (human LS9 (HLS9; pooled); human, scaled from CLint,in vitro): 2,251.20 ± 161.06 L h^−1 kg^−1
- CLint, in vitro(MSCUR) of DLS9 higher than that of HLS9 (dog LS9 (DLS9; beagle); DLS9 vs HLS9): approximately two
- CLint, in vitro(MSCUR) (dog LS9 (DLS9; beagle); dog LS9): 24.61 ± 2.55 ml min^−1 mg protein^−1
- k 2 (MSCUR) (dog LS9 (DLS9; beagle); dog LS9 1 mg/ml, CDD 3 µM, 37°C): 24.61 ± 2.55 min⁻¹
- CLint, in vivo(MSCUR) (dog LS9 (DLS9; beagle); dog, scaled from CLint,in vitro): 5,716.98 ± 592.58 L h^−1 kg^−1
- half-life at 3 µM [5]: 1.704 ± 0.0018 s
- half-life at 3 µM [6]: 4.314 ± 0.00264 s
- CLint, in vitro(MSCUR) of RLS9 lower than that of HLS9 ([7]; RLS9 vs HLS9): 0.8 fold
- CLint, in vitro(MSCUR) ([7]; rat LS9): 9.66 ± 0.60 ml min^−1 mg protein^−1
- k 2 (MSCUR) ([7]; rat LS9 1 mg/ml, CDD 3 µM, 37°C): 9.66 ± 0.60 min⁻¹
- CLint, in vivo(MSCUR) ([7]; rat, scaled from CLint,in vitro): 2,805.37 ± 174.76 L h^−1 kg^−1
- half-life at 3 µM [8]: 2.034 ± 0.00324 s
- CLint, in vitro(MSCUR) of MLS9 higher than that of HLS9 ([9]; MLS9 vs HLS9): ~1.7 fold
- CLint, in vitro(MSCUR) ([9]; monkey LS9): 20.79 ± 3.13 ml min^−1 mg protein^−1
- k 2 (MSCUR) ([9]; monkey LS9 1 mg/ml, CDD 3 µM, 37°C): 20.79 ± 3.13 min⁻¹
- CLint, in vivo(MSCUR) ([9]; monkey, scaled from CLint,in vitro): 4,527.30 ± 682.15 L h^−1 kg^−1

Compound: CC(C)OC(=O)[C@H](C)N[P@](=O)(OC[C@H]1O[C@@](C#N)(c2ccc3c(N)ncnn23)[C@](C)(O)[C@@H]1OC(=O)C(C)C)Oc1ccccc1 [GS-6620]
- t 1/2 ([10]; ref Murakami et al., 2014): approximately 4.0 min

Compound: COC(=O)[C@H](c1ccccc1Cl)N1CCc2sc(OC(C)=O)cc2C1 [vicagrel]
- t 1/2 ([10]; ref Qiu et al., 2016): approximately 1.6 min
